Measurements as given in paper PMC10607366 (International Journal of Molecular Sciences, 2023).
pEC50: −log10 of the molar value. Structures can show the parent of a compound that is named as a salt.

Key:
[1] = system: H1N1 A/Netherlands/602/2009 (N09); assay: microbe, parasite or virus in culture; type: cell-based, Influenza A virus; settings: for Inhibition (%): 10 µM; for inhibition at 10 µM: Influenza A virus, H1N1, A549, 48 h
[2] = system: H1N1 A/Netherlands/602/2009 (N09); settings: 10 µM
in vitro = settings: dog
influenza virus = settings: cited from earlier work
[3] = system: H1N1 A/Netherlands/602/2009 (N09); assay: microbe, parasite or virus in culture; type: cell-based; settings: Influenza A virus, H1N1, MDCK, read-out: EC50 (95% CI)
[4] = system: H1N1 A/Netherlands/602/2009 (N09); assay: microbe, parasite or virus in culture; settings: Influenza A virus, H1N1, A549, 48 h
[5] = system: H1N1 A/Netherlands/602/2009 (N09); type: cell-based, Influenza A virus
[6] = system: H1N1 A/Netherlands/602/2009 (N09); type: cell-based, Influenza A virus; remark: listed apart in the source
[7] = system: clinical influenza A strain (H1N1); type: cell-based, Influenza A virus
[8] = system: H1N1 A/Netherlands/602/2009 (N09); type: cell-based, Influenza A virus; remark: listed apart in the source

| SMILES | pEC50 [3] | inhibition at 10 µM [1] [%] | viability at 10 µM [4] [%] | CC50 (in vitro) [µM] | also measured |
| --- | --- | --- | --- | --- | --- |
| CCN(CCCc1ccccc1)CCCc1ccccc1.O=C(O)CC(O)(CC(=O)O)C(=O)O [Alverine citrate salt] | – | – | – | – | Inhibition (%) [1]: 99%; Viability (%) [2]: 145% |
| C=C[C@@](C)(/C=C/c1ccc(O)cc1)CCC=C(C)C [Bakuchiol] | 6.03 | – | – | – | CC50 at 24 h (in vitro): 46.2 µM; Reported inhibition of influenza virus (influenza virus): inhibit influenza virus |
| CCN(CC)CCNC(C(=O)OCCC(C)C)c1ccccc1.Cl.Cl (stereo not drawn) [Camylofine chlorhydrate] | – | – | – | – | Inhibition (%) [1]: 97%; Viability (%) [2]: 97% |
| COc1ccc2c(c1)[C@]13CCCC[C@@H]1[C@H](C2)N(C)CC3 [Dextromethorphan hydrobromide monohydrate] | – | 100 | 103 | – | – |
| C/C=C(/C(=C/C)c1ccc(O)cc1)c1ccc(O)cc1 [Dienestrol] | 5.50 | – | – | 32.6 | – |
| CC/C(=C(/CC)c1ccc(O)cc1)c1ccc(O)cc1 [Diethylstilbestrol] | – | 114 | 72 | 9.81 | Viral RNA replication [5]: inhibited; Inhibition of SARS-CoV-2 (SARS-CoV-2 B.1.1.7): did not inhibit; Toxicity in Mucilair tissues (MucilAir tissues): absence of toxicity; Attachment of the virus [6]: not inhibited; Reduction of viral load [7]: more than one log; Inhibition, pre-treatment [8]: good inhibition; Potency when added post-infection [8]: potency of the compound was lost |
| CC[C@H](c1ccc(O)cc1)[C@@H](CC)c1ccc(O)cc1 [Hexestrol] | 6.85 | – | – | 46.9 | – |
| C[C@H](Cc1ccc(O)c(O)c1)[C@@H](C)Cc1ccc(O)c(O)c1 [Masoprocol] | < 5.00 | – | – | 84.9 | – |
| OC(CCN1CCCC1)(c1ccccc1)C1CCCCC1 (stereo not drawn) [Procyclidine hydrochloride] | – | 97 | 91 | – | – |
| Oc1ccc(/C=C/c2cc(O)cc(O)c2)cc1 [Resveratrol] | < 5.00 | – | – | 52 | Reported inhibition of influenza (influenza virus): inhibit influenza |
